Target: NAD(P)H dehydrogenase [quinone] 1 (Homo sapiens, UniProt P15559)
Assay: Prodrug activation assessed as NQO1 (unknown origin)-mediated RSSH release by measuring rate constant

Sequence of NAD(P)H dehydrogenase [quinone] 1 (P15559 whole entry): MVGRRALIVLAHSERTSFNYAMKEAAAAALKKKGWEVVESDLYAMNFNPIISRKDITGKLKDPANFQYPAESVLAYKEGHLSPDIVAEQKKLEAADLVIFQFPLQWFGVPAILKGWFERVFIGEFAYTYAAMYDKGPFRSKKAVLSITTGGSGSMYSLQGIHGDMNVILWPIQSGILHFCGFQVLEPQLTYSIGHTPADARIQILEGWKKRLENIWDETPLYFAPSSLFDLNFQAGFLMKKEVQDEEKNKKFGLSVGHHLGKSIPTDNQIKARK

| K [min⁻¹] | Compound |
| --- | --- |
| 0.212 | CN1CCN(C)C1=O |
| 0.162 | COC(=O)[C@H](NC(C)=O)C(C)(C)SSCc1ccc(N(C)C(=O)CC(C)(C)C2=C(C)C(=O)C(C)=C(C)C2=O)cc1 |
| 0.17 | COC(=O)[C@H](NC(C)=O)C(C)(C)SSC(=O)N(C)CCN(C)C(=O)CC(C)(C)C1=C(C)C(=O)C(C)=C(C)C1=O |
| 0.32 | Cc1c(C)c2c(c(C)c1O)C(C)(C)CC(=O)O2 |

Reference: ChEMBL document CHEMBL6127099, “Stimuli-responsive prodrugs with self-immolative linker for improved cancer therapy” (Eur J Med Chem, 2024)
